This experiment concerns NCI-H716 cells. As to the kind of experiment: GLP-1 secretion-promoting effect using NCI-H716 cells (GLP-1 in supernatant by ELISA). In kind it is cell-based, Human. The following applies: for GLP-1 secretion compared to Control: Experiment 1-3, text on Table 1, mGN 2.5 mM, flavor component 0.25 mM; for activity at 125 µM: test sample alone at 0.125 mM; for activity at 25 µM: test sample alone at 0.025 mM; for activity at 2500 µM: test sample alone at 2.5 mM; for activity at 25000 µM: test sample alone at 25 mM. How it is done:
GLP-1 secretion-promoting effect was evaluated by the following experiment using NCI-H716 cells (Human intestinal tract-derived cell line; purchased from ATCC).
NCI-H716 cells were cultured at 37° C. with 5% CO2 using RPMI1640 (supplemented with 10% Fetal Bovine Serum, manufactured by Sigma) as a cell culture medium for passage. After culturing, cells were suspended in DMEM medium (supplemented with 10% Fetal Bovine Serum; containing 4.5 mg/mL of glucose; manufactured by Shimadzu Diagnostics Corporation, Tokyo, Japan) and added to a Matrigel (120 μL/well; manufactured by Corning Incorporated, NY, USA)-coated 48-well plate at a cell density of 1.2×10^5 cells/well. After incubation for 2 days, the cells were washed twice with 20 mM HEPES-containing HBSS (Hank's Balanced Salt Solution) buffer. After removal of the washing buffer, 20 mM HEPES-HBSS (supplemented with 0.01% BSA) containing the above-described test samples was added and the cells were incubated for 2 hours. After incubation, the supernatant was collected into a microcentrifuge tube containing diprotin-A (DPP4 inhibitor, manufactured by Abcam plc., Cambridge, UK) and protease inhibitors (cOmplete™, EDTA-free Protease Inhibitor Cocktail, Roche, Basel, Switzerland; Catalogue No. 1187358001). After centrifugation, the supernatant was stored at −80° C. until it was used for the GLP-1 measurement. The amount of GLP-1 in the medium was measured by ELISA method using GLP-1 Active Form Assay Kit (manufactured by Immuno-Biological Laboratories Co, Ltd., Gunma, Japan). […] As a positive control for measuring cytotoxicity, the cells added with 0.1% Triton X-100/PBS (−) (Phosphate Buffered Saline) were used. The LDH activity in the cell culture supernatant of the positive control was set as 100% and the ratio to the positive control (LDH activity in the cell culture supernatant of sample/LDH activity in the positive control) was calculated as the cytotoxicity rate. Herein, it was judged that a sample had no cytotoxicity when the cytotoxicity rate was within ±2% compared to that of “control (cells cultured with 20 mM HEPES-HBSS without a test sample, instead of 20 mM HEPES-HBSS containing a test sample; shown as “No Addition” in Table 1)”.
The amount of GLP-1 secretion was determined as a relative value to the average value of the GLP-1 secretion amount obtained for a control (cells cultured with 20 mM HEPES-HBSS without a test sample instead of 20 mM HEPES-HBSS containing a test sample; shown as “No Addition” in Table 1). In Table 1, the GLP-1 secretion amounts when mGN and flavor components were used separately and the GLP-1 secretion amounts when mGN and flavor components were used in combination were shown. […] The synergistic effect of mGN and flavor components in promoting GLP-1 secretion was judged based on the following criteria.
Synergistic Effect: Theoretical Value<(is less than) Measured Value • Theoretical Value=([…])×100+(B/D−1)×100 • Measured Value=(C/D-1)×100
The theoretical value and the measure value were compared based on the above formula. When the measured value was higher than the theoretical value, it was judged that there was a synergistic effect, which was indicated as “O” in the table.
The presence or absence of the synergistic effect by the combination of mGN and thymol was judged based on the formula used in Experiment 1-3. When the measured value was higher than the theoretical value, it was judged that there was a synergistic effect and it was indicated as “O” in the table. Furthermore, a Tukey-Kramer test was performed. When there was a significant difference (Risk Rate p<0.05) between the GLP-1 secretion amount of the combination of mGN and thymol (C) and each of the GLP-1 secretion amount of Control (D), mGN alone (A), and thymol alone (B), it was indicated “⊚” in the below table.
A general note: An ELISA detects its analyte on a solid surface through an enzyme-linked reagent.

[1] abbreviates: Homo sapiens, NCI-H716, 2 h, Table 1, Experiment 1-3, test sample alone at 0.25 mM, Control (No Addition) = 100, 2 hours, read-out: GLP-1 secretion amount, Independent Use (relative value to Control).
The mark [2] stands for this setting: Experiment 1-3, flavor component alone 0.25 mM.
[3] abbreviates: Table 1, Experiment 1-3, test sample alone at 0.25 mM, Control (No Addition) = 100, 2 hours.
Setting [4] is: Homo sapiens, NCI-H716, 2 h, Table 4, Experiment 4, Control = 100, N=3, read-out: GLP-1 secretion amount, Independent Use (relative value to Control).
The mark [5] stands for this setting: Homo sapiens, NCI-H716, 2 h, Table 4, Experiment 4, test sample alone at 0.25 mM, Control = 100, N=3, read-out: GLP-1 secretion amount, Independent Use (relative value to Control).
[6] abbreviates: Homo sapiens, NCI-H716, 2 h, Table 3, Experiment 3, Control = 100, N=3, read-out: GLP-1 secretion amount, Independent Use (relative value to Control).
Setting [7] is: Homo sapiens, NCI-H716, 2 h, Table 2, Experiment 2, Control = 100, N=3, read-out: GLP-1 secretion amount, Independent Use (relative value to Control).
Setting [8] is: Homo sapiens, NCI-H716, 2 h, Table 6, Experiment 6, Control = 100, N=3, read-out: GLP-1 secretion amount, Independent Use (relative value to Control).

The values that follow come from patent US20240139226A1, “A COMPOSITION FOR PROMOTING GLP-1 SECRETION” (priority 2021, published 2024).

Where two headings read alike, the source gives them in different places.

Consider `C=C1C2CCC(C2)C1(C)C` (centres unmarked) [Camphene, camphene], for which, under setting [1], the activity at 250 µM was determined as 135%.

For the compound `CC(C)=CCCC(C)=CC=O` [Citral, citral, reference compound], the “GLP-1 secretion compared to Control” value is “approximately 2.4 times”. Moreover, the activity at 250 µM under setting [1] amounted to 246%.

For `CC(C)=CCCC(C)CC=O` (centres unmarked) [Citronellal, citronellal, reference compound], the activity at 250 µM under setting [1] stood at 113%.

Consider `CNc1ccccc1C(=O)OC` [Methyl N-methyl anthranilate, methyl N-methyl anthranilate], for which the “GLP-1 secretion promoting effect when used alone (in words)” value (shortened to “GLP-1 secretion promoting effect”) under setting [2] is given as “no GLP-1 secretion promoting effect”. Moreover, the “GLP-1 secretion amount, Independent Use (relative value to Control)” value under setting [3] is reported as 73.

For `COC(=O)c1ccccc1N` [Methyl anthranilate, methyl anthranilate], the “GLP-1 secretion promoting effect” value under setting [2] is reported as “no GLP-1 secretion promoting effect”. For the same compound, under “Homo sapiens, NCI-H716, 2 h, read-out: GLP-1 secretion amount, Independent Use (relative value to Control)”, the activity at 250 µM is 73%.

Regarding `C=C(C)[C@@H]1CCC2=CC(=O)C[C@@H](C)[C@]2(C)C1` [Nootkatone, nootkatone], for the setting “Experiment 4, alone, concentrations of Table 4”, the “GLP-1 secretion when used alone (in words)” value was “promoted in a nootkatone concentration-dependent manner”. For the same compound, the activity at 250 µM is, setting by setting: under setting [1], 457%; under setting [5], 464%. Moreover, the activity at 12.5 µM (Homo sapiens, NCI-H716, 2 h, Table 4, Experiment 4, test sample alone at 0.0125 mM, Control = 100, N=3, read-out: GLP-1 secretion amount, Independent Use (relative value to Control)) turned out to be 70%. The activity at 37.5 µM (Homo sapiens, NCI-H716, 2 h, Table 4, Experiment 4, test sample alone at 0.0375 mM, Control = 100, N=3, read-out: GLP-1 secretion amount, Independent Use (relative value to Control)) came to 111%. The activity at 125 µM under setting [4] turned out to be 350%.

In the case of `C=C1CCC2(C(C)C)CC12` (centres unmarked) [Sabinene, sabinene], the “GLP-1 secretion promoting effect” value under setting [2] is recorded as “no GLP-1 secretion promoting effect”. Further, under setting [1], the activity at 250 µM is 101%.

`Cc1ccc(C(C)C)c(O)c1` [Thymol, thymol]: under setting [2], the “GLP-1 secretion promoting effect” value is given as “no GLP-1 secretion promoting effect”. Also, for the setting “Experiment 2, alone at a concentration of 0.25 mM”, the “GLP-1 secretion-promoting effect when used alone (in words)” value is given as “no GLP-1 secretion-promoting effect was observed”. The “GLP-1 secretion promoting effect” value (Experiment 3, alone, 0.0067 mM to 0.125 mM) is on record as “no GLP-1 secretion promoting effect”. The activity at 250 µM under setting [1] was determined as 82%. The activity at 6.7 µM (Homo sapiens, NCI-H716, 2 h, Table 3, Experiment 3, test sample alone at 0.0067 mM, Control = 100, N=3, read-out: GLP-1 secretion amount, Independent Use (relative value to Control)) turned out to be 34%. Besides, under setting [6], the activity at 25 µM came to 61% and the activity at 125 µM stood at 65%.

In the case of `C=C(C)[C@@H]1CCC2=CCC[C@@H](C)[C@]2(C)C1` [Valencene, valencene], the “GLP-1 secretion amount, Independent Use (relative value to Control)” value under setting [3] is reported as 121.

As for `CC1O[C@@H](OC2[C@H](Oc3cc(O)c4c(c3)OC(c3ccc(O)cc3)CC4=O)OC(CO)[C@@H](O)[C@H]2O[C@H]2OC(CO)[C@@H](O)[C@@H](O)C2O)C(O)[C@@H](O)[C@H]1O` (stereo partly drawn) [mGN, 3″-α-monoglucosyl naringin], the “GLP-1 secretion compared to Control” value is on record as “approximately 1.6 times”. Further, the “GLP-1 secretion when used alone (in words)” value (Experiment 2, alone, 0.025 mM to 150 mM) is recorded as “promoted to some extent in a mGN concentration-dependent manner”. For the same compound, the activity at 2500 µM (Homo sapiens, NCI-H716, 2 h, Table 1, Experiment 1-3, Control (No Addition) = 100, 2 hours, read-out: GLP-1 secretion amount, Independent Use (relative value to Control)) turned out to be 164%. Besides, under setting [7], the activity at 25 µM worked out at 45%, the activity at 2500 µM was found to be 121% and the activity at 25000 µM amounted to 427%. The activity at 250 µM (Homo sapiens, NCI-H716, 2 h, Table 2, Experiment 2, test sample alone at 0.25 mM, Control = 100, N=3, read-out: GLP-1 secretion amount, Independent Use (relative value to Control)) came out at 63%. The activity at 25000 µM under setting [6] came to 521%. For the same compound, under setting [4], the activity at 25 µM amounted to 39% and the activity at 2500 µM was determined as 85%. The activity at 250 µM under setting [5] is 63%. For the same compound, where the note is “Homo sapiens, NCI-H716, 2 h, Table 4, Experiment 4, test sample alone at 12.5 mM, Control = 100, N=3, read-out: GLP-1 secretion amount, Independent Use (relative value to Control)”, the activity at 12500 µM came to 502%. Also, the activity at 25 µM (Homo sapiens, NCI-H716, 2 h, Table 5, Experiment 5, Control = 100, N=3, read-out: GLP-1 secretion amount, Independent Use (relative value to Control)) turned out to be 39%. For the same compound, under setting [8], the activity at 25 µM amounted to 53% and the activity at 25000 µM is 457%.

As to `CC1=CCC2CC1C2(C)C` (stereo not drawn) [α-Pinene, α-pinene], the activity at 250 µM under setting [1] amounted to 136%.

For `C=C1CC/C=C(\C)CC[C@@H]2[C@@H]1CC2(C)C` [β-Caryophyllene, β-caryophyllene], under setting [3], the “GLP-1 secretion amount, Independent Use (relative value to Control)” value turned out to be 111.

As to `CC(=O)/C=C/C1=C(C)CCCC1(C)C` [β-Ionone, β-ionone], the “GLP-1 secretion amount, Independent Use (relative value to Control)” value under setting [3] is reported as 157.

On to `C=C1CCC2CC1C2(C)C` (stereo not drawn) [β-Pinene, β-pinene], for which the “GLP-1 secretion promoting effect” value under setting [2] is reported as “no GLP-1 secretion promoting effect”. Besides, under setting [1], the activity at 250 µM is 100%.
